Measured values taken from patent US8772250B2, “Compositions and methods for treating ischemia and ischemia-reperfusion injury” (Ischemix, LLC, priority 2010, dated 2014).

Assays:
[1] = biological target: IGF1R (Homo sapiens, UniProt P08069); test: IGF1R tyrosine kinase activation assay (mobility shift); format: biochemical
Excerpt: (§1) IGF1R and Src tyrosine kinases have endogenous levels of activity in the presence of ATP and substrate. This activity was readily measured using a mobility shift assay using a Caliper LabChip® 3000 and a 12-sipper LabChip® to detect both phosphorylated and unphosphorylated substrate (Caliper Life Sciences, Discovery Alliances and Services Division). Enzyme, substrate and ATP concentrations were optimized for each assay. For the IGF1R assay, the final concentrations of the enzyme, peptide and ATP were 20 nM, 1.5 μM, and 1220 μM, respectively. For the Src assay, the final concentrations of the enzyme, peptide and ATP were 2.5 nM, 1.5 μM, and 17 μM, respectively.
(§2) RLip-EA-OH was evaluated at multiple concentrations for an effect on activation of IGF1 receptor kinase (IGF1R) and Src. The compounds tested activated IGF1R and Src with different selectivities.

[2] = biological target: Src (Homo sapiens, UniProt P12931); test: Src tyrosine kinase activation assay (mobility shift); format: biochemical
Excerpt: as §1, §2

[3] = system: myocardial I/R injury; test: Incidence of acute cardiac dysfunction and mortality in rat model of myocardial I/R injury; format: in vivo
Method: The incidence of acute cardiac dysfunction associated with arrhythmia and cardiac arrest requiring intervention and the incidence of mortality due to these co-morbidities was examined in the rat model of myocardial I/R injury described herein for different dosages and dosage regimens for administering RLip-EA-OH. In vivo experiments were performed as described in Example 8 using dosage intervals described in Example 10. Treatments (i.e., vehicle, RLip-EA-OH) were administered as a left intra-ventricular injection, IV bolus, IV infusion, or orally. Specifically, the incidence of non-self-resolving cardiac dysfunction (i.e., extended fibrillation arrhythmia, sudden cardiac arrest) during ischemia and requiring intervention (direct mechanical cardiac resuscitation), and mortality associated with cardiac dysfunction were observed.

Chain of Src (P12931 whole entry, species assumed): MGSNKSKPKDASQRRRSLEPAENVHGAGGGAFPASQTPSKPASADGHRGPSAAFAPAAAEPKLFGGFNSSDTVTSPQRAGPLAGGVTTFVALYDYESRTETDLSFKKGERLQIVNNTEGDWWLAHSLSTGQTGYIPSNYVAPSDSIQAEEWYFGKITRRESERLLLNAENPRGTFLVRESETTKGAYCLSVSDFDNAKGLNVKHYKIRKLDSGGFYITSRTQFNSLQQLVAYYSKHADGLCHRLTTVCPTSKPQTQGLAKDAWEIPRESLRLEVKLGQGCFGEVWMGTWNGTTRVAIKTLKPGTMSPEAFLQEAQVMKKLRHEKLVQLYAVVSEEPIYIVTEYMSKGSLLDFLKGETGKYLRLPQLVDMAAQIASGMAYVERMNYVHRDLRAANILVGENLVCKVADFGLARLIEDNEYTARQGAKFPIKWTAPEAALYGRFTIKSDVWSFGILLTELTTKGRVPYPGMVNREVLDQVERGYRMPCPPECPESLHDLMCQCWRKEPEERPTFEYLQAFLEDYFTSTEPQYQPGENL
Chain of IGF1R (P08069 959-1367 limits assumed, species assumed): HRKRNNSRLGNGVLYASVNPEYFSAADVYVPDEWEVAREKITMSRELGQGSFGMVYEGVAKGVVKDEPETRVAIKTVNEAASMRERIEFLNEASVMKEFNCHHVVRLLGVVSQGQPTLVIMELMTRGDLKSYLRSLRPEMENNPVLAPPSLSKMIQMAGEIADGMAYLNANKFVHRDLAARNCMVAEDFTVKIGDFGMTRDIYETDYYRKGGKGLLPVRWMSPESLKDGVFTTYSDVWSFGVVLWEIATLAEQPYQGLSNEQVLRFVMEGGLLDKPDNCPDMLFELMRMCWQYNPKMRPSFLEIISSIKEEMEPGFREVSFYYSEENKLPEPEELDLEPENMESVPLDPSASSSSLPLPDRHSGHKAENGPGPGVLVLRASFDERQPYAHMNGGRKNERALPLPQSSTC

`C[C@H](NC(=O)[C@H](CCC(=O)O)NC(=O)CCCC[C@@H]1CCSS1)C(=O)O` [RLip-EA-OH, N-(R)-lipoyl-L-glutamyl-L- alanine] was tested. Which “IGF1R % activity above control (±SEM)” value ([1]; 100 μM) did it give?
Its value is 42 ± 1%.

And the “IGF1R % Increase in activity above vehicle control” value ([1]; 300 μM)?
Its value is 33 ± 3%.

And the “Src % activity above control (±SEM)” value ([2]; 100 μM)?
The value was 70 ± 1%.

And the “Src % Increase in activity above vehicle control” value ([2]; 300 μM)?
The value was 78 ± 2%.

And the “Intervention due to Arrhythmia/Arrest (%)” value ([3]; Multi-dose (2x))?
The value was 3\19 (16) %.

And the “Mortality (%)” value ([3]; Multi-dose (2x))?
The value was 1\19 (5) %.

What about the “Intervention due to Arrhythmia/Arrest (%)” value ([3]; Multi-dose (3x)) of the same compound?
The value was 4\18 (22) %.

And the “Mortality (%)” value ([3]; Multi-dose (3x))?
The value was 1\18 (5) %.

What about the “Intervention due to Arrhythmia/Arrest (%)” value ([3]; Single dose) of the same compound?
Its value is 6\17 (35) %.

What about the “Mortality (%)” value ([3]; Single dose) of the same compound?
The value was 2\17 (12) %.
